Patent US8318792B2, “Therapeutic agent for amyotrophic lateral sclerosis” (Nippon Medical School Foundation, priority 2006, dated 2012)

Tests used:
Format in all cases: in vivo, mouse
G1H-G93A transgenic mice [1] = assay: Exercise tolerance test: rotarod test; conditions: for Rotarod test score: 5 mg/kg oral daily from 80th day (before onset), score 0-3
Protocol: (§1) The following five kinds of exercise tolerance tests were conducted every fifth day from the 70th day after birth to evaluate the ability to exercise in the respective exercise tolerance tests. That is, the days for the exercise tolerance tests were every fifth days, such as the 70th day, 75th day, 80th day, 85th day and so on, after birth. The exercise tolerance tests were conducted throughout the survival period, and the post-mortem evaluation was based on the definitions of the following five kinds of exercise tolerance tests.
The apparatus used in the Rotarod test (Rota Rod Treadmill type 7600, Ugo Basile Co., Milano, Italy) is a rotating axle having a diameter of 3.6 cm, and this rotating axle is set up so as to have 16 revolution per minute (one rotation: 3.75 seconds). The period for which a mouse can remain on a rotating axle without falling is measured. The evaluation of the rotarod test for the mouse was performed based on the following criteria: Score 0=The time exceeds 60 seconds; Score 1=The time is more than 30 seconds and 60 seconds or less; Score 2=The time is more than 4 seconds and 30 seconds or less; and Score 3=The time is 4 seconds or less. The post-mortem evaluation of the rotarod test is defined as score 3.

G1H-G93A transgenic mice [2] = assay: Histopathological study: number of spinal cord anterior horn cells; conditions: end stage, 5 mg/kg oral daily from 80th day after birth (before onset)
Protocol: The mouse supplied to the experiment is anesthetized by intraperitoneal injection of pentobarbital sodium in an amount of 1 mL per kg of the mouse body weight. After confirming that the mouse is completely under anesthesia, laparotomy and thoracotomy are performed, and blood is completely removed from the visceral organs of the whole body by perfusion of physiological saline at 37° C. via the left ventricle and aorta. The complete removal of blood from the visceral organs of the whole body is carried out by confirming complete removal of the blood of the aorta in the thoracic part and abdominal part, mesenteric arteries, liver, kidneys, and small arteries on the surfaces of the stomach, small intestine and large intestine under direct visual inspection. Subsequently, perfusion of 50 mL of physiological saline at 37° C. is performed. Immediately thereafter, the perfusion is performed with a fixative (4% paraformaldehyde supplemented with 0.1 M cacodylate buffer, pH 7.4). The spinal cord is removed and re-fixed with the same fixative for 18 hours. After the fixation of spinal cord tissue, each spinal cord segments is cut out to examine the spinal cord tissue. For the detailed analyses of spinal cord tissues, two segments of the cervical spinal cord (upper and lower cervical segments), three segments of the thoracic spinal cord (upper, middle, and lower thoracic segments), and two segments of lumbar spinal cord (upper and lower lumbar segments) were cut out to provide seven segments in total. Each spinal cord segments are respectively embedded in paraffin to produce paraffin blocks, and then cut into paraffin sections having a thickness of 5 μm using a microtome. The paraffin sections are subjected to hematoxylin and eosin (HE) staining.
For a quantitative analysis, serial 25 paraffin sections having a thickness of 5 μm were produced in series from the respective segment paraffin blocks of the spinal cord, and the 1st section, 7th section, 13th section, 19th section and 25th section were selected and subjected to HE staining. Specifically, paraffin sections were selected such that one paraffin section was taken at a […], and 5 HE preparations were produced from a single spinal cord segments. Therefore, 10 HE preparations from two areas for the entire cervical spinal cord, 15 HE preparations from three areas for the entire thoracic spinal cord, and 10 HE preparations from two areas for the entire lumbar spinal cord, were produced.
In order to calculate the number of motor neurons in the anterior horn, all of the HE stained sections were observed under a light microscope (BX41: Olympus Corp., Tokyo, Japan) equipped with a 3CCD digital color camera system for the microscope (FX380: Olympus Corp., Tokyo, Japan). Subsequently, photographs of the anterior horn region (corresponding to VII, VIII and IX Rexed areas) in the HE stained sections of the respective myelomere tissues of the spinal cord were taken, and the images were analyzed using an image analysis-filing software (FLVFS-LS Ver. 1.12: Olympus Corp., Tokyo, Japan). In regard to the definition of the motor neuron in the anterior horn of spinal cord (spinal cord anterior horn cells), cells in the HE stained sections, which have a nucleus carrying a definite nucleolus and contain a cell body having a diameter of 25 μm or more, were selected as the spinal cord anterior horn cells (Klivenyi P, et al., Nature Med 1999; 5:347-351, Kong J & Xu Z, J Neurosci 1998; 18:3241-3250, and Stephens B, et al., Neuropathol Appl Neurobiol 2001; 27:352-361). Based on this definition, the number of spinal cord anterior horn cells was counted for each of the HE stained sections. The respective numbers of spinal cord anterior horn cells in the cervical spinal cord, thoracic spinal cord and lumbar spinal cord of one mouse was calculated from the total number of spinal cord anterior horn cells in five HE stained sections. […]

G1H-G93A transgenic mice [3] = assay: Exercise tolerance test: beam balance test; conditions: 5 mg/kg oral daily from 80th day (before onset), score 0-2
Protocol: as §1
The apparatus used in the beam balance test is constructed by maintaining a wooden beam having a diameter of 1.5 cm horizontally, and installing platforms which serve as footholds, on the respective sides in a distance of 30 cm. A mouse is placed on the platform on one side, and the time taken by the mouse to cross over the beam which is 30 cm in length and to arrive at the platform on the opposite side is measured. The evaluation of the beam balance test for the mouse was performed based on the following criteria: Score 0=The time is 10 seconds or less; Score 1=The time is more than 10 seconds to 15 seconds; and Score 2=The time is more than 15 seconds, or the mouse falls down. The post-mortem evaluation of the beam balance test is defined as score 2.

[4] = from the 125th day to 140th day after birth
[5] = per five HE sections, average±SD

Cc1nc(-c2ccc(OCC(C)C)c(C#N)c2)sc1C(=O)O [compound (c), 2-[3-cyano-4-(2-methylpropoxy)phenyl]-4-methyl-5-thiazolecarboxylic acid]
Rotarod test score (G1H-G93A transgenic mice [1]; 70th day after birth, 5 mg/kg): 0.0±0.0
Rotarod test score (G1H-G93A transgenic mice [1]; 75th day after birth, 5 mg/kg): 0.0±0.0
Rotarod test score (G1H-G93A transgenic mice [1]; 80th day after birth, 5 mg/kg): 0.0±0.0
Rotarod test score (G1H-G93A transgenic mice [1]; 85th day after birth, 5 mg/kg): 0.0±0.0
Rotarod test score (G1H-G93A transgenic mice [1]; 90th day after birth, 5 mg/kg): 0.0±0.0
Rotarod test score (G1H-G93A transgenic mice [1]; 95th day after birth, 5 mg/kg): 0.0±0.0
Rotarod test score (G1H-G93A transgenic mice [1]; 100th day after birth, 5 mg/kg): 0.0±0.0
Rotarod test score (G1H-G93A transgenic mice [1]; 105th day after birth, 5 mg/kg): 0.0±0.0
effect in rotarod test as compared to placebo group (G1H-G93A transgenic mice [1]; 105th, 110th and 115th day, 5 mg/kg oral daily from 80th day after birth, Mann-Whitney's U test): significant effects
Rotarod test score (G1H-G93A transgenic mice [1]; 110th day after birth, 5 mg/kg): 0.4±0.8
Rotarod test score (G1H-G93A transgenic mice [1]; 115th day after birth, 5 mg/kg): 1.3±1.3
Rotarod test score (G1H-G93A transgenic mice [1]; 120th day after birth, 5 mg/kg): 2.5±0.5
Rotarod test score (G1H-G93A transgenic mice [1]; 125th day after birth): 3.0 ± 0.0
Rotarod test score (G1H-G93A transgenic mice [1]; 130th day after birth): 3.0 ± 0.0
Rotarod test score (G1H-G93A transgenic mice [1]; 135th day after birth): 3.0 ± 0.0
Rotarod test score (G1H-G93A transgenic mice [1]; 140th day after birth): 3.0 ± 0.0
Rotarod test score (G1H-G93A transgenic mice [1]; [4]): 3.0±0.0
difference to placebo group in number of spinal cord anterior horn cells (cervical, thoracic or lumbar segment) (G1H-G93A transgenic mice [2]; P>0.05, Mann-Whitney's U test): no significant difference
number of spinal cord anterior horn cells in the cervical segment (G1H-G93A transgenic mice [2]; [5]): 5.2±4.3
number of spinal cord anterior horn cells in the lumbar segment (G1H-G93A transgenic mice [2]; [5]): 4.1±3.8
number of spinal cord anterior horn cells in the thoracic segment (G1H-G93A transgenic mice [2]; [5]): 1.6±1.7
Beam balance test score (G1H-G93A transgenic mice [3]; 70th day after birth, 5 mg/kg): 0.0±0.0
Beam balance test score (G1H-G93A transgenic mice [3]; 75th day after birth, 5 mg/kg): 0.0±0.0
Beam balance test score (G1H-G93A transgenic mice [3]; 80th day after birth, 5 mg/kg): 0.0±0.0
Beam balance test score (G1H-G93A transgenic mice [3]; 85th day after birth, 5 mg/kg): 0.0±0.0
Beam balance test score (G1H-G93A transgenic mice [3]; 90th day after birth, 5 mg/kg): 0.0±0.0
Beam balance test score (G1H-G93A transgenic mice [3]; 95th day after birth, 5 mg/kg): 0.0±0.0
Beam balance test score (G1H-G93A transgenic mice [3]; 100th day after birth, 5 mg/kg): 0.0±0.0
Beam balance test score (G1H-G93A transgenic mice [3]; 105th day after birth, 5 mg/kg): 0.0±0.0
Beam balance test score (G1H-G93A transgenic mice [3]; 110th day after birth, 5 mg/kg): 0.1±0.3
Beam balance test score (G1H-G93A transgenic mice [3]; 115th day after birth, 5 mg/kg): 0.7±0.8
Beam balance test score (G1H-G93A transgenic mice [3]; 120th day after birth, 5 mg/kg): 1.4±0.7
Beam balance test score (G1H-G93A transgenic mice [3]; 125th day after birth): 2.0 ± 0.0
Beam balance test score (G1H-G93A transgenic mice [3]; 130th day after birth): 2.0 ± 0.0
Beam balance test score (G1H-G93A transgenic mice [3]; 135th day after birth): 2.0 ± 0.0
Beam balance test score (G1H-G93A transgenic mice [3]; 140th day after birth): 2.0 ± 0.0
Beam balance test score (G1H-G93A transgenic mice [3]; [4]): 2.0±0.0
